Data on one substance can be found in paper PMC2033546, “Effects of somatostatin analogue RC-160 and bombesin/gastrin-releasing peptide antagonists on the growth of human small-cell and non-small-cell lung carcinomas in nude mice” (British Journal of Cancer, 1994).

In assay [1] the test system is human SCLC cell line NCI-H69. The experiment in a line: Growth of H69 SCLC xenografts in nude mice. It is filed as in vivo, human (xenograft in male athymic nude mice). The source says:
(§1) Br. J. Cancer (1994). 70, 886 892 ? Macmillan Press Ltd.. […] Bombesin GRP antagonists. […] Lung carcinoma is the leading cause of cancer-related deaths in the western world. It is estimated that in 1992 there were approximately 168,000 new cases of lung cancer in the US and that about 146,000 deaths occurred from this disease (Boring et al., 1992). […] The growth factors such as bombesin/gastrin-releasing pep- tide (GRP), epidermal growth factor, (EGF), transforming growth factor a (TGF-x) and insulin-like growth factor I(IGF-I) appear to play a role in the proliferation and pro- gression of lung cancer (Cuttitta et al., 1985; Veale et al., 1987; Minuto et al., 1988; Siegfried & Owens, 1988; Macaulay et al., 1990; Tateishi et al., 1991; Damstrup et al., 1992; Sethi & Rozengurt, 1992; Rabiasz et al., 1992; Moody & Cuttitta, 1993). […] Tpi is 2,3,4,9-tetrahydro- Correspondence: A.V. Schally (151). VA Medical Center, 1601 Per- dido Street. New Orleans, LA 70146. USA. Received 1 March 1994; and in revised form 5 July 1994. Br. J. Cancer (1994), 70, 886-892 C Macmillan Press Ltd., 1994 PEPTIDE ANALOGUES IN LUNG CANCER 8U7 lH-pyrido [3,4bjindol-3-carboxylic acid, a conformationally constrained secondary amine derivate of tryptophan and Tac is thiazolidine-4-carboxylic acid. […] Animals Male athymic NCr nulmu nude mice, approximately 6 weeks old on arrival, were obtained from the NCI (Bethesda, MD, USA) and maintained under pathogen-limited conditions. Cell lines The human SCLC cell line NCI-H69, was obtained from the American Type Cell Culture (ATCC), Rockville, MD, USA and the non-SCLC cell line NCI-H157, from Dr H. Oie, NCI-Navy Medical Oncology Branch, Bethesda, MD, USA. These cell lines were cultured in RPMI-1640 medium supple- mented with 4 mM L-glutamine, 50 units ml-I penicilln G sodium, SOigml-' streptomycin sulphate, 0.125pgml-' amphotericin B and 10% fetal bovine serum at 3TC in a humidified 95% air/5% carbon dioxide atmosphere. CeLs were passaged weekly and routinely monitored for myco- plasma contamination using a detection kit (Boehringer- Mannheim, Mannheim, Germany). All culture media com- ponents were purchased from Gibco (Grand Island, NY, USA). Receptor assays Preparation of membranes for receptor studies was described previously (Halmos et al., 1993). Iodinated EGF and IGF-I were purchased from Amersham (Arlington Heights, IL, USA). Radioiodination of other peptides and receptor bind- ing of EGF, IGF-I, somatostatin and bombesin/GRP were performed as previously described (Srkalovic et al., 1989; Szepeshazi et al., 1992). Complete displacement assays on tumour membranes were done only once because of the shortage of tumour material. The LIGAND PC computerised curve-fitting programme of Munson and Rodbard (1980) was used to determine the types of receptor binding, dissociation constant (Kd) values, and the maximal binding capacity (BDj) of receptors. In order to determine the specificity of the binding sites for radiolabelled EGF, IGF-I, somatostatin and bombesin to lung cancer membranes, various structuraly related and unrelated peptides were tested for their ability to inhibit the binding of the tracers. Histological procedure The histological procedures were the same as described previously (Szepeshazi et al., 1991, 1992). The number of mitotic and apoptotic cells per 1,000 cells was determined, and the percentage area of necrosis in tumour sections was examined using the point-counting method (Szepeshazi et al., 1991, 1992), in which the crossing points of an ocular net that coincide with necrosis in various sections are counted. Radiommunoassays Serum levels of growth hormone were determined by double- antibody radioimmunoassay (RIA) using materials supplied by the National Hormone and Pituitary Program of the National Institute of Diabetes and Digestive and Kidney Diseases (NIDDK).

Assay [2] has as its system EGF receptors in membranes of SCLC H69 tumours. Description: EGF receptor binding on H69 tumour membranes after in vivo treatment. More on the design: species or system human.
From the text: as §1, with “In order to determine the specificity of the binding sites for radiolabelled EGF, IGF-I, somatostatin and bombesin to lung cancer membranes, various structuraly related and unrelated peptides were tested for their ability to inhibit the binding of the tracers. Histological procedure The histological procedures were the same as described previously (Szepeshazi et al., 1991, 1992).” left out

Assay [3] can be described thus: Serum gastrin radioimmunoassay in nude mice. The format is in vivo. As to conditions: both experiments, after chronic treatment, vs controls.
[4] abbreviates: H69 SCLC xenografts, as compared with control group, RC-160 100 µg, RC-3950-II 20 µg per animal per day s.c. peritumorally, 5 weeks.

Where no end group is shown, it is not given here. [ ]: non-standard residue; d: D form.

Turning to “[dF]CY[dW]KVCW-NH2 (cysteine pairing not given here) [RC-160, Somatostatin analogue RC-160]”, in assay [1] (setting [4]), the “Reduction in tumour volumes” value was “more than 70%” and the “Reduction in tumour weights” value was “more than 70%”. For the same substance, the “Time from which tumour growth was significantly inhibited” value in assay [1] (SCLC H69 tumours, P<0.01, from start of the experiment) amounted to 14 days. In addition, the “Tumour volume, final” value in assay [1] (Table I, Experiment I (SCLC-H69), 5 weeks s.c. peritumoral, RC-160 100 µg/day, RC-3440, RC-3095, RC-3950-II 20 µg/day per animal, control 249.7 ? 182.3, means ? s.d., ten animals per group, *P<0.05 vs control) is 66.0 26.5* (mm)r. In addition, in assay [1] (Table I, Experiment I (SCLC-H69), 5 weeks s.c. peritumoral, RC-160 100 µg/day, antagonists 20 µg/day per animal, control 0.27 ? 0.19, means ? s.d., *P<0.05 vs control), the Tumour weight is on record as 0.058 0.04* g. The same substance came in with a Tumour doubling time in assay [1] (Table I, Experiment I (SCLC-H69), 5 weeks, RC-160 100 µg/day, antagonists 20 µg/day per animal s.c., control 7.5) of 12.7 days. Moreover, the “Growth of H69 SCLC tumours (in words)” value in assay [1] (s.c. peritumorally, RC-160 100 µg, bombesin/GRP antagonists 20 µg per animal per day, 5 weeks) was “inhibited the growth of H69 SCLC xenografts”. For the same substance, the “EGF maximal binding capacity (Bmax)” value in assay [2] (Table IV, Experiment I (SCLC-H69), tumour membranes after in vivo treatment, control 278, ten-point displacement in triplicate tubes, done once) was found to be 174 fmol mg' protein. The “EGF receptors on H69 tumours (in words)” value in assay [2] (after in vivo treatment) is on record as “down-regulated”. The “Serum gastrin levels (in words)” value in assay [3] was “significantly decreased serum growth hormone and gastrin levels”.
